The target of the test is T1, LmCpfC (Listeria monocytogenes, UniProt Q8Y565).
T1 construct: gene cpfC; full length in pET21a(+) (BamHI/XhoI), C-terminal 6xHis-tag kept, vector N-terminal residues; E. coli BL21 Gold; 37 kDa theoretical, 38 kDa by MALS; monomer
T1 sequence (Q8Y565 1-309): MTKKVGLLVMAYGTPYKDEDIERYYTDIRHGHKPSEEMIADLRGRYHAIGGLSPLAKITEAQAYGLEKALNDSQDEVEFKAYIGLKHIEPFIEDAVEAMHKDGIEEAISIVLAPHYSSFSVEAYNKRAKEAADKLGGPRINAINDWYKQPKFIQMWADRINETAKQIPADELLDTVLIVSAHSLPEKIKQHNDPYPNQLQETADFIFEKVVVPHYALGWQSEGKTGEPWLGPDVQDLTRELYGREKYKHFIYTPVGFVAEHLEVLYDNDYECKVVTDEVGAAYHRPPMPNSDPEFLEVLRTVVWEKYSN
The experiment in a line: stopped-flow UV-vis, […] nm, KD = koff/kon. It is filed as binding.

Compound `CC1=C(CCC(=O)O)c2cc3nc(cc4[nH]c(cc5[nH]c(cc1n2)c(C)c5CCC(=O)O)c(CCC(=O)O)c4C)C(CCC(=O)O)=C3C` [coproporphyrin III] returned a Kd of 2000 nM.

For the origin of these results see PMC7340540, “Crystal structures and calorimetry reveal catalytically relevant binding mode of coproporphyrin and coproheme in coproporphyrin ferrochelatase” (The FEBS journal, 2019).
